Laboratory results from article PMC5735085, “A 1-phytase type III effector interferes with plant hormone signaling” (Nature Communications, 2017).

Target: T1, HopAO1 (Pseudomonas syringae group genomosp. 3, UniProt Q79LY0)
T1 construct: gene hopD2; full-length, N-terminal 6xHis (pMCSG57-hopAO1, DNASU), E. coli BL21-CodonPlus(DE3)-RIL
Experiment: in vitro phytate degradation
Format: biochemical

T1 sequence (Q79LY0 whole entry): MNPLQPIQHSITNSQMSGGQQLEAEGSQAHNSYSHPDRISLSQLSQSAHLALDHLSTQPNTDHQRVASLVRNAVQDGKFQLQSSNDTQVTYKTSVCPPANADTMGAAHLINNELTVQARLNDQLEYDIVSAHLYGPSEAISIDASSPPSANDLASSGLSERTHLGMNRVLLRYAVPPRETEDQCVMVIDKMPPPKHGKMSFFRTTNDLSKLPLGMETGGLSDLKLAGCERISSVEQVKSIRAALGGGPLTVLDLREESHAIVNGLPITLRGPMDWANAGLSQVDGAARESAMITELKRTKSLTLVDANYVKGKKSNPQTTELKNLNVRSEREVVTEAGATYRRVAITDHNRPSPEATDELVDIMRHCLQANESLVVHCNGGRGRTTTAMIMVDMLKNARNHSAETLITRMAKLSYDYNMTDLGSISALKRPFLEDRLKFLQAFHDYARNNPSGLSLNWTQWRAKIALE

## O=P(O)(O)O[C@H]1[C@H](OP(=O)(O)O)[C@@H](OP(=O)(O)O)[C@H](OP(=O)(O)O)[C@@H](OP(=O)(O)O)[C@H]1OP(=O)(O)O [InsP6]
  in vitro phytate degradation: HopAO1 degraded phytate in vitro but, in contrast to XopH, to lower phosphorylated
